Results from PubChem BioAssay (NCI).
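Compound exposure: 48 hours, 5 concentrations, 96-well plates. Abbreviation: GI50, concentration required for 50% inhibition of growth. TGI: total growth inhibition.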

Columns and labels:
Test in all cases: NCI tumour cell line growth inhibition, 48 h
[1] = tested on: 786-0 renal
[2] = tested on: A498 renal
[3] = tested on: A549 NSCLC
[4] = tested on: ACHN renal
[5] = tested on: BT-549 breast
[6] = tested on: CAKI-1 renal
[7] = tested on: CCRF-CEM leukemia
[8] = tested on: COLO 205 colon
[9] = tested on: DU-145 prostate
[10] = tested on: EKVX NSCLC
[11] = tested on: HCC-2998 colon
[12] = tested on: HCT-116 colon
[13] = tested on: HCT-15 colon
[14] = tested on: HL-60(TB) leukemia
[15] = tested on: HOP-62 NSCLC
[16] = tested on: HOP-92 NSCLC
[17] = tested on: HS 578T breast
[18] = tested on: HT29 colon
[19] = tested on: IGROV1 ovarian
[20] = tested on: K-562 leukemia
[21] = tested on: KM12 colon
[22] = tested on: LOX IMVI melanoma
[23] = tested on: M14 melanoma
[24] = tested on: MALME-3M melanoma
[25] = tested on: MCF7 breast
[26] = tested on: MDA-MB-231 breast
[27] = tested on: MDA-MB-435
[28] = tested on: MDA-MB-468 breast
[29] = tested on: MOLT-4 leukemia
[30] = tested on: NCI-H226 lung
[31] = tested on: NCI-H23 lung
[32] = tested on: NCI-H460 lung
[33] = tested on: NCI-H522 lung
[34] = tested on: NCI/ADR-RES ovarian
[35] = tested on: OVCAR-3 ovarian
[36] = tested on: OVCAR-4 ovarian
[37] = tested on: OVCAR-5 ovarian
[38] = tested on: OVCAR-8 ovarian
[39] = tested on: PC-3 prostate
[40] = tested on: RPMI-8226 leukemia
[41] = tested on: RXF 393 renal
[42] = tested on: SF-268 CNS
[43] = tested on: SF-295 CNS
[44] = tested on: SF-539 CNS
[45] = tested on: SK-MEL-2 melanoma
[46] = tested on: SK-MEL-28 melanoma
[47] = tested on: SK-MEL-5 melanoma
[48] = tested on: SK-OV-3 ovarian
[49] = tested on: SN12C renal
[50] = tested on: SNB-19 CNS
[51] = tested on: SNB-75 CNS
[52] = tested on: SW-620 colon
[53] = tested on: T-47D breast
[54] = tested on: TK-10 renal
[55] = tested on: U251 CNS
[56] = tested on: UACC-257 melanoma
[57] = tested on: UACC-62 melanoma
[58] = tested on: UO-31 renal

## Brc1ccc(N/N=C/c2c[nH]c3ccc(Br)cc23)nc1
[1]
  GI50: 2.5 µM
  TGI: 8.24 µM
[2]
  GI50: 4.03 µM
  TGI: 13.3 µM
[3]
  GI50: 3.26 µM
  TGI: 12.7 µM
[4]
  GI50: 2.66 µM
  TGI: 10.5 µM
[5]
  GI50: 0.259 µM
  TGI: 5.39 µM
[6]
  GI50: 1.6 µM
  TGI: 9.87 µM
[7]
  GI50: 1.27 µM
  TGI: > 100 µM
[8]
  GI50: 2.07 µM
  TGI: 5 µM
[9]
  GI50: 4.55 µM
  TGI: 16 µM
[10]
  GI50: 1.74 µM
  TGI: 10.9 µM
[11]
  GI50: 1.74 µM
  TGI: 3.55 µM
[12]
  GI50: 2.68 µM
  TGI: 10.6 µM
[13]
  GI50: 1.8 µM
  TGI: 4.25 µM
[14]
  GI50: 1.7 µM
  TGI: 18.7 µM
[15]
  GI50: 3.14 µM
  TGI: 13 µM
[16]
  GI50: 1.51 µM
  TGI: 4.27 µM
[17]
  GI50: 2.13 µM
  TGI: 8.29 µM
[18]
  GI50: 2.39 µM
  TGI: 5.32 µM
[19]
  GI50: 0.251 µM
  TGI: 1.89 µM
[20]
  GI50: 2.73 µM
  TGI: > 100 µM
[21]
  GI50: 1.67 µM
  TGI: 5.88 µM
[22]
  GI50: 1.11 µM
  TGI: 2.49 µM
[23]
  GI50: 2.03 µM
  TGI: 5.31 µM
[24]
  GI50: 3.26 µM
  TGI: 15.3 µM
[25]
  GI50: 1.59 µM
  TGI: 7.85 µM
[26]
  GI50: 1.44 µM
  TGI: 3.64 µM
[27]
  GI50: 3.45 µM
  TGI: 14.1 µM
[28]
  GI50: 1.61 µM
  TGI: 4.2 µM
[29]
  GI50: 0.644 µM
  TGI: 18.5 µM
[30]
  GI50: 0.674 µM
  TGI: 10.3 µM
[31]
  GI50: 2.14 µM
  TGI: 8.21 µM
[32]
  GI50: 2.7 µM
  TGI: 8.64 µM
[33]
  GI50: 1.6 µM
  TGI: 5.54 µM
[34]
  GI50: 2.79 µM
  TGI: 12.4 µM
[35]
  GI50: 2.69 µM
  TGI: 9.13 µM
[36]
  GI50: 4.07 µM
  TGI: 17.8 µM
[37]
  GI50: 2.32 µM
  TGI: 9.51 µM
[38]
  GI50: 2.96 µM
  TGI: 17 µM
[39]
  GI50: 0.851 µM
  TGI: 10.1 µM
[40]
  GI50: 1.47 µM
  TGI: 8.12 µM
[41]
  GI50: 1.85 µM
  TGI: 5.64 µM
[42]
  GI50: 1.84 µM
  TGI: 13.9 µM
[43]
  GI50: 1.74 µM
  TGI: 3.56 µM
[44]
  GI50: 0.795 µM
  TGI: 8.06 µM
[45]
  GI50: 2.92 µM
  TGI: 11.9 µM
[46]
  GI50: 3.58 µM
  TGI: 13.2 µM
[47]
  GI50: 2.56 µM
  TGI: 8.54 µM
[48]
  GI50: 2.71 µM
  TGI: 13.7 µM
[49]
  GI50: 1.05 µM
  TGI: 9.73 µM
[50]
  GI50: 3.09 µM
  TGI: 12.4 µM
[51]
  GI50: 0.568 µM
  TGI: 6.01 µM
[52]
  GI50: 2.85 µM
  TGI: 11.7 µM
[53]
  GI50: 1.97 µM
  TGI: 12 µM
[54]
  GI50: 5.85 µM
  TGI: 15.1 µM
[55]
  GI50: 2.54 µM
  TGI: 10.5 µM
[56]
  GI50: 3.47 µM
  TGI: 15.3 µM
[57]
  GI50: 0.862 µM
  TGI: 10.9 µM
[58]
  GI50: 0.532 µM
  TGI: 7.55 µM

## Cc1nc(Nc2ccccn2)sc1C(=O)CC(SCC(=O)Nc1ccc(Cl)cc1)c1ccccc1F (configuration not stated)
[1]
  GI50: 3.74 µM
  TGI: 14.3 µM
[2]
  GI50: 12.7 µM
  TGI: 35.7 µM
[3]
  GI50: 3.15 µM
  TGI: 22.8 µM
[4]
  GI50: 3.9 µM
  TGI: 14.8 µM
[5]
  GI50: 2.83 µM
  TGI: 9.85 µM
[6]
  GI50: 2.71 µM
  TGI: 16.9 µM
[7]
  GI50: 2.39 µM
  TGI: > 100 µM
[8]
  GI50: 2.18 µM
  TGI: 4.67 µM
[9]
  GI50: 3.34 µM
  TGI: 13.2 µM
[10]
  GI50: 3.15 µM
  TGI: 13.4 µM
[11]
  GI50: 3.44 µM
  TGI: 13.8 µM
[12]
  GI50: 2.2 µM
  TGI: 6.46 µM
[13]
  GI50: 1.8 µM
  TGI: 11.2 µM
[14]
  GI50: > 100 µM
  TGI: > 100 µM
[15]
  GI50: 2.79 µM
  TGI: 12.3 µM
[16]
  GI50: 4.94 µM
  TGI: 25.9 µM
[17]
  GI50: 2.14 µM
  TGI: 6.17 µM
[18]
  GI50: 2.16 µM
  TGI: 5.44 µM
[19]
  GI50: 3.87 µM
  TGI: 20.7 µM
[20]
  GI50: > 100 µM
  TGI: > 100 µM
[21]
  GI50: 1.39 µM
  TGI: 8.67 µM
[22]
  GI50: 2.31 µM
  TGI: 10.3 µM
[23]
  GI50: 1.69 µM
  TGI: 4.02 µM
[24]
  GI50: 4.91 µM
  TGI: 19.6 µM
[25]
  GI50: 1.25 µM
  TGI: 13.8 µM
[26]
  GI50: 2.64 µM
  TGI: 7.86 µM
[27]
  GI50: 1.02 µM
  TGI: 2.78 µM
[28]
  GI50: 1.58 µM
  TGI: 5.05 µM
[29]
  GI50: > 100 µM
  TGI: > 100 µM
[30]
  GI50: 7.91 µM
  TGI: 31.2 µM
[31]
  GI50: 3.84 µM
  TGI: 15.7 µM
[32]
  GI50: 2.23 µM
  TGI: 5.22 µM
[33]
  GI50: 2.22 µM
  TGI: 6.4 µM
[34]
  GI50: 1.81 µM
  TGI: 5.44 µM
[35]
  GI50: 1.53 µM
  TGI: 11.6 µM
[36]
  GI50: 11.4 µM
  TGI: 71.4 µM
[37]
  GI50: 2.6 µM
  TGI: 6.89 µM
[38]
  GI50: 2.31 µM
  TGI: 5.88 µM
[39]
  GI50: 4.04 µM
  TGI: 93.6 µM
[40]
  GI50: 3.33 µM
  TGI: 72.1 µM
[41]
  GI50: 2.32 µM
  TGI: 8.73 µM
[42]
  GI50: 3.74 µM
  TGI: 17.3 µM
[43]
  GI50: 2.77 µM
  TGI: 12.3 µM
[44]
  GI50: 2.02 µM
  TGI: 4.41 µM
[45]
  GI50: 2.03 µM
  TGI: 4.74 µM
[46]
  GI50: 5.45 µM
  TGI: 19.7 µM
[47]
  GI50: 2.2 µM
  TGI: 5.86 µM
[48]
  GI50: 3.63 µM
  TGI: 29.2 µM
[49]
  GI50: 2.72 µM
  TGI: 10.5 µM
[50]
  GI50: 3.28 µM
  TGI: 14.4 µM
[51]
  GI50: 1.42 µM
  TGI: 6.22 µM
[52]
  GI50: 2.56 µM
  TGI: 11.7 µM
[53]
  GI50: 2.28 µM
  TGI: 9.79 µM
[54]
  GI50: 4.79 µM
  TGI: 16.8 µM
[55]
  GI50: 2.22 µM
  TGI: 6.41 µM
[56]
  GI50: 4.72 µM
  TGI: 19.4 µM
[57]
  GI50: 2.24 µM
  TGI: 10.3 µM
[58]
  GI50: 3.44 µM
  TGI: 16.4 µM
